Positions of bridges follow the written chain, without caps; N, C: chain ends. Residues, ends and D or L forms follow the SMILES beside them. Groups on a side chain read outwards from the residue. Chains are numbered I, II in the order given. *: point of attachment. Acetyl(C-α-L-Fucp) = C[C@@H]1O[C@@H](CC(=O)*)[C@@H](O)[C@H](O)[C@@H]1O
Columns and labels:
[1] = test system: Staphylococcus aureus; test: Antibiofilm activity against Staphylococcus aureus ATCC 29213; type: functional, organism-based
[2] = test system: Staphylococcus aureus; test: Antibiofilm activity against Staphylococcus aureus BAA-1026; type: functional
[3] = test system: Enterococcus faecalis; test: Antibiofilm activity against Enterococcus faecalis ATCC 29212; type: functional
[4] = test system: Staphylococcus aureus; test: Antibiofilm activity against methicillin-resistant Staphylococcus aureus; type: functional, organism-based; conditions: Staphylococcus aureus
[5] = biological target: T1, Sortase A (Staphylococcus aureus, UniProt Q9S446); test: Inhibition of Staphylococcus aureus SrtA
T1 sequence (Q9S446 whole entry): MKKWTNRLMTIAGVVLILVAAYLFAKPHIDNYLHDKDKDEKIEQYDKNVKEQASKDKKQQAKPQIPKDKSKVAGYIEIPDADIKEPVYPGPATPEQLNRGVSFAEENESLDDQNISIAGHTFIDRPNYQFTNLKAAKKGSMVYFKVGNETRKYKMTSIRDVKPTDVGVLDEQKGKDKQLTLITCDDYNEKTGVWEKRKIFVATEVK

[6] = test system: Acinetobacter baumannii; test: Antibiofilm activity against Acinetobacter baumannii preformed biofilms; type: functional, organism-based
[7] = test system: Pseudomonas aeruginosa; test: Antibiofilm activity against Pseudomonas aeruginosa PA14 assessed as inhibition of biofilm dispersion; type: functional, organism-based
[8] = test system: Pseudomonas aeruginosa; test: Antibiofilm activity against Pseudomonas aeruginosa PAO1 assessed as inhibition of biofilm dispersion; type: functional, organism-based
[9] = test system: Staphylococcus aureus; test: Antibiofilm activity against Staphylococcus aureus at 100 uM relative to control; type: functional
[10] = test system: Staphylococcus aureus; test: Synergistic antibacterial activity against methicillin-resistant Staphylococcus aureus assessed as fold reduction in penicillin G MIC; type: functional
[11] = test system: Staphylococcus aureus; test: Synergistic antibacterial activity against methicillin-resistant Staphylococcus aureus assessed as fold reduction in oxacillin MIC; type: functional
[12] = test system: Staphylococcus aureus; test: Antibiofilm activity against methicillin-resistant Staphylococcus aureus ATCC BAA-44; type: functional, organism-based
[13] = test system: Pseudomonas aeruginosa; test: Antibiofilm activity against Pseudomonas aeruginosa PA14; type: functional, organism-based
[14] = test system: Pseudomonas aeruginosa; test: Antibiofilm activity against Pseudomonas aeruginosa PAO1; type: functional, organism-based
[15] = biological target: Fucose-binding lectin PA-IIL (Pseudomonas aeruginosa (strain ATCC 15692 / DSM 22644 / CIP 104116 / JCM14847 / LMG 12228 / 1C / PRS 101 / PAO1), UniProt Q9HYN5); test: Inhibition of biotinylated polymeric fucose binding to Pseudomonas aeruginosa LecB expressed in Escherichia coli BL21(DE3) preincubated for 1 hr followed by biotinylated polymeric fucose addition and measured after 1 hr
[16] = test system: Pseudomonas aeruginosa; test: Antibiofilm activity against Pseudomonas aeruginosa; type: functional, organism-based
[17] = test system: Staphylococcus aureus; test: Antibiofilm activity against methicillin-resistant Staphylococcus aureus BAA-1707; type: functional
[18] = test system: Staphylococcus aureus; test: Antibiofilm activity against methicillin-resistant Staphylococcus aureus isolate 2; type: functional

Chain of Fucose-binding lectin PA-IIL (Q9HYN5 whole entry): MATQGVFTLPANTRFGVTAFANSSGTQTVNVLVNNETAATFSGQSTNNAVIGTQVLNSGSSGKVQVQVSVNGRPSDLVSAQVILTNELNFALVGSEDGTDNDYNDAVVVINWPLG

With `Cc1cc(C(=O)/C(=N\Nc2ccc(Cl)c(Cl)c2)C(=O)O)no1` the IC50 [1] was 0.8 µM.

In the case of `c1ccc(-c2nc(-c3ccc(-c4nc(-c5cccc6ccccc56)cs4)cc3)cs2)cc1`, the MBEC [2] is reported as 250 µg/mL and the MBEC [3] is reported as 4 µg/mL.

`O=C(Oc1c(Br)cc(Br)c2nc3ccccc3nc12)c1ccco1` was tested, and the IC50 [4] was 1.4 to 2.9 µM.

In the case of `CCOC(=O)/C(=N/Nc1ccccc1)C(C)=O`, the IC50 [5] is reported as 192 µM.

`CCCc1ccc(-c2[nH]c(N)nc2CCCCCc2cn(C/C(C)=C/c3ccccc3)nn2)cc1` showed an IC50 [4] of 1.42 µM and an IC50 [6] of 11.3 µM.

`CCCCCCCCNC(=O)CCCc1c[nH]c(N)n1` gave an IC50 [7] of 13.3 µM and an IC50 [8] of 18.4 µM.

In the case of `CC(=O)/C(=N\Nc1ccccc1)C(=O)O`, the Activity [9] is reported as 39.2 - 68.3% and the IC50 [5] is reported as 50 to 92 µM.

With `CC(=O)/C(C#N)=N\Nc1ccccc1` the Activity [9] was 39.2 - 68.3% and the IC50 [5] was 50 to 92 µM.

With `CCCCCCCc1ccc(NC(=O)CCn2cc(C[C@@]34CNC[C@@H]3Nc3ccccc34)nn2)cc1` the IC50 [4] was 2.8 µM.

Compound `CCCCc1ccc(C(=O)NCCn2cc(CCCCc3[nH]c(N)nc3-c3ccc4c(c3)OCO4)nn2)cc1` has an IC50 [4] of 3.7 µM.

For `CCCCCCc1ccc(NC(=O)CCn2cc(C[C@@]34CNC[C@@H]3Nc3ccccc34)nn2)cc1`, the IC50 [4] was 3.4 µM.

In the case of `CCCCCc1cccc(C(=O)NCCNC(=O)CCCCCc2cnc(N)[nH]2)c1`, the IC50 [4] is reported as 6.5 µg/mL, the “fold change (FC)” value [10] is reported as 16 and the “fold change (FC)” value [11] is reported as 64.

With `CCCCOc1ccc(Br)c(/C=C(\C)Cn2cc(CCCCCc3c[nH]c(N)n3)nn2)c1F` the EC50 [4] was 4.5 to 9.8 µM and the EC50 [6] was 44.7 to 59.6 µM.

For `c1ccc(-c2csc(-c3ccc(-c4csc(-c5ccccc5)n4)cc3)n2)cc1`, the MBEC [2] was 1000 µg/mL and the MBEC [3] was 2 µg/mL.

Work on `Cc1sc(-c2ccc(-c3csc(-c4ccccc4)n3)cc2)nc1-c1ccccc1` yielded an MBEC [2] of 1000 µg/mL and an MBEC [3] of 4 µg/mL.

`CCOC(=O)/C(=N/Nc1ccc(Cl)c(Cl)c1)C(=O)c1cc(C)nn1CC` gave an IC50 [1] of 1.7 µM.

In the case of `O=C1NC(C(Cl)(Cl)Cc2ccccc2)O/C1=C\c1ccc(C(F)(F)F)cc1` (stereo not given), the IC50 [12] is reported as 1.2 µM.

`COc1ccc(-c2csc(-c3ccc(-c4csc(-c5ccccc5)n4)cc3)n2)cc1` showed an MBEC [2] of 62 µg/mL and an MBEC [3] of 4 µg/mL.

Compound `CCCCc1ccc(C(=O)NCCn2cc(CCCCc3[nH]c(N)nc3-c3cnc4ccccc4c3)nn2)cc1` has an IC50 [4] of 4.2 µM.

With `CCCCCCNC(=O)CCCc1c[nH]c(N)n1` the IC50 [7] was 39.9 µM and the IC50 [8] was 32.7 µM.

In the case of `CC(=O)/C(=N\Nc1ccc(Cl)c(Cl)c1)C(=O)O`, the Activity [9] is reported as 39.2 - 68.3% and the IC50 [5] is reported as 50 to 92 µM.

`NC(=O)c1cc(-c2csc(-c3ccc(-c4csc(-c5ccccc5)n4)cc3)n2)ccc1O` gave an MBEC [2] of 250 µg/mL and an MBEC [3] of 8 µg/mL.

In the case of `CCCCCCCCCCCCNC(=O)CCCc1c[nH]c(N)n1`, the IC50 [7] is reported as 2.26 µM, the IC50 [13] is reported as 2.26 µM and the IC50 [14] is reported as 2.84 µM. It also gave an IC50 [8] of 2.8 µM.

`COC(=O)Oc1c(Br)cc(Br)c2nc3ccccc3nc12` showed an IC50 [4] of 1.4 to 2.9 µM.

`CC[C@H](C)[C@H](NC(=O)[C@H](Cc1cnc[nH]1)NC(=O)[C@H](CCCCNC(=O)[C@@H](NC(=O)[C@H](CCCCN)NC(=O)[C@H](Cc1ccccc1)NC(=O)[C@H](CCCCNC(=O)[C@H](CC(C)C)NC(=O)[C@@H]1CCCN1C(=O)[C@H](CCCCN)NC(=O)C[C@@H]1O[C@@H](C)[C@@H](O)[C@@H](O)[C@@H]1O)NC(=O)[C@H](CC(C)C)NC(=O)[C@@H]1CCCN1C(=O)[C@H](CCCCN)NC(=O)C[C@@H]1O[C@@H](C)[C@@H](O)[C@@H](O)[C@@H]1O)[C@@H](C)CC)NC(=O)[C@@H](NC(=O)[C@H](CCCCN)NC(=O)[C@H](Cc1ccccc1)NC(=O)[C@H](CCCCNC(=O)[C@H](CC(C)C)NC(=O)[C@@H]1CCCN1C(=O)[C@H](CCCCN)NC(=O)C[C@@H]1O[C@@H](C)[C@@H](O)[C@@H](O)[C@@H]1O)NC(=O)[C@H](CC(C)C)NC(=O)[C@@H]1CCCN1C(=O)[C@H](CCCCN)NC(=O)C[C@@H]1O[C@@H](C)[C@@H](O)[C@@H](O)[C@@H]1O)[C@@H](C)CC)C(N)=O` (I: {Acetyl(C-α-L-Fucp)}-KPLK([Leu-Pro-Lys-Acetyl(C-α-L-Fucp)])FKIKHI-NH2 / II: {Acetyl(C-α-L-Fucp)}-KPLK([Leu-Pro-Lys-Acetyl(C-α-L-Fucp)])FKI; amide I:8-II:C) gave an IC50 [15] of 0.14 µM and an IC50 [16] of 10 µM.

For `Cc1ccc2c(Br)cc(Br)c(O)c2n1` [BROQUINALDOL], the MBEC [17] was 93 µM and the MBEC [18] was 188 µM.

From ChEMBL document CHEMBL4325854, “Synthetic small molecules as anti-biofilm agents in the struggle against antibiotic resistance” (Eur J Med Chem, 2019)
